What was measured:
[1] = test system: normal NK cells expanded with K562-aAPC; assay: percent inhibition of viability; higher = more inhibition; settings: 72 h, IL-2 2.5 ng/mL
Procedure: (§1)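 Drug sensitivity and resistance testing on K562-aAPC-expanded normal NK cells: 5 concentrations (10-fold steps over a 10,000-fold range), 72 h at 37 °C, viability by CellTiter-Glo normalised to DMSO and benzethonium chloride controls; DSS from the fitted curve.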

NKL (IL-2 2.5 ng/mL) [2] = assay: drug sensitivity score (DSS) (DSS units); higher = more sensitive; extreme values may be limits of the assay; settings: 72 h
NK-YS (IL-2 2.5 ng/mL) [3] = assay: as above; settings: 72 h
[4] = test system: normal primary NK cells, pool 1 (3 donors) (IL-2 2.5 ng/mL); assay: as above; settings: 72 h
DERL-7 (IL-2 2.5 ng/mL) [5] = assay: as above; settings: 72 h
[6] = test system: normal primary NK cells, pool 2 (3 donors) (IL-2 2.5 ng/mL); assay: as above; settings: 72 h
[7] = test system: normal primary NK cells, pool 3 (3 donors) (IL-2 2.5 ng/mL); assay: as above; settings: 72 h
[8] = test system: normal primary NK cells, pool 1 (3 donors), resting (IL-2 0 ng/mL); assay: as above; settings: 72 h
KAI3 (IL-2 2.5 ng/mL) [9] = assay: as above; settings: 72 h
YT (IL-2 2.5 ng/mL) [10] = assay: as above; settings: 72 h
SNK-6 (IL-2 2.5 ng/mL) [11] = assay: as above; settings: 72 h
KHYG-1 (IL-2 2.5 ng/mL) [12] = assay: as above; settings: 72 h
NK-92 (IL-2 2.5 ng/mL) [13] = assay: as above; settings: 72 h
IMC-1 (IL-2 20 ng/mL) [14] = assay: as above; settings: 72 h
NKL (IL-2 2.5 ng/mL) [15] = assay: percent inhibition of viability; higher = more inhibition; settings: 72 h
NK-YS (IL-2 2.5 ng/mL) [16] = assay: as above; settings: 72 h
[17] = test system: normal primary NK cells, pool 1 (3 donors) (IL-2 2.5 ng/mL); assay: as above; settings: 72 h
DERL-7 (IL-2 2.5 ng/mL) [18] = assay: as above; settings: 72 h
[19] = test system: normal primary NK cells, pool 2 (3 donors) (IL-2 2.5 ng/mL); assay: as above; settings: 72 h
[20] = test system: normal primary NK cells, pool 3 (3 donors) (IL-2 2.5 ng/mL); assay: as above; settings: 72 h
[21] = test system: normal primary NK cells, pool 1 (3 donors), resting (IL-2 0 ng/mL); assay: as above; settings: 72 h
KAI3 (IL-2 2.5 ng/mL) [22] = assay: as above; settings: 72 h
YT (IL-2 2.5 ng/mL) [23] = assay: as above; settings: 72 h
SNK-6 (IL-2 2.5 ng/mL) [24] = assay: as above; settings: 72 h
KHYG-1 (IL-2 2.5 ng/mL) [25] = assay: as above; settings: 72 h
NK-92 (IL-2 2.5 ng/mL) [26] = assay: as above; settings: 72 h
IMC-1 (IL-2 20 ng/mL) [27] = assay: as above; settings: 72 h
[28] = test system: normal NK cells expanded with K562-aAPC; assay: drug sensitivity score (DSS) (DSS units); higher = more sensitive; extreme values may be limits of the assay; settings: 72 h; IL-2 2.5 ng/mL
Procedure: as §1

CN(C)c1cc2c(cc1Sc1nc3c(N)nccc3n1CCNCC(C)(C)C)OCO2 [CUDC-305] (max concentration tested 10000 nM)
percent inhibition of viability [%]
Settings | 1 nM | 10 nM | 100 nM | 1000 nM | 10000 nM
DERL-7 (IL-2 2.5 ng/mL) [18] | -1.72 | -0.9 | 22.4 | 101 | 101
IMC-1 (IL-2 20 ng/mL) [27] | -5.61 | -0.06 | 1.88 | 100 | 101
KAI3 (IL-2 2.5 ng/mL) [22] | -0.9 | -0.19 | 41.5 | 108 | 108
KHYG-1 (IL-2 2.5 ng/mL) [25] | -1.89 | -3.69 | 6.61 | 107 | 111
NK-92 (IL-2 2.5 ng/mL) [26] | -12 | -2.97 | 13.8 | 103 | 107
NK-YS (IL-2 2.5 ng/mL) [16] | -4.26 | -6.26 | 23.7 | 108 | 109
NKL (IL-2 2.5 ng/mL) [15] | -12.3 | -13.6 | 3.23 | 97.1 | 95.2
SNK-6 (IL-2 2.5 ng/mL) [24] | -24.7 | -25.3 | -1.59 | 89.5 | 89.3
YT (IL-2 2.5 ng/mL) [23] | -8.17 | -8.94 | 5.06 | 96.3 | 102
[1] | -9.36 | -5.57 | 18.3 | 98.9 | 99.5
[17] | 3.05 | 11.3 | 19.7 | 84.3 | 92.8
[19] | -9.1 | 7.74 | 23 | 77.7 | 86.7
[20] | -11.7 | 2.98 | 12 | 77.3 | 88.5
[21] | -0.67 | 17.6 | 27.6 | 43.1 | 69.2

Settings | drug sensitivity score
DERL-7 (IL-2 2.5 ng/mL) [5] | 21.5
IMC-1 (IL-2 20 ng/mL) [14] | 18.2
KAI3 (IL-2 2.5 ng/mL) [9] | 23.5
KHYG-1 (IL-2 2.5 ng/mL) [12] | 19.4
NK-92 (IL-2 2.5 ng/mL) [13] | 20.4
NK-YS (IL-2 2.5 ng/mL) [3] | 21.7
NKL (IL-2 2.5 ng/mL) [2] | 17.9
SNK-6 (IL-2 2.5 ng/mL) [11] | 16
YT (IL-2 2.5 ng/mL) [10] | 18.2
[4] | 17.8
[6] | 17
[7] | 15.8
[8] | 12.7
[28] | 20.9

C=CC(=O)Nc1cc2c(Nc3ccc(F)c(Cl)c3)ncnc2cc1OCCCN1CCOCC1 [Canertinib] (max concentration tested 10000 nM)
percent inhibition of viability [%]
Settings | 1 nM | 10 nM | 100 nM | 1000 nM | 10000 nM
DERL-7 (IL-2 2.5 ng/mL) [18] | -1.22 | 3.31 | 7.19 | 46.1 | 101
IMC-1 (IL-2 20 ng/mL) [27] | -13.9 | -4.18 | -9.88 | -11.9 | 99.7
KAI3 (IL-2 2.5 ng/mL) [22] | -7.79 | -2.37 | 3.26 | 43.7 | 104
KHYG-1 (IL-2 2.5 ng/mL) [25] | -9.72 | -6.52 | -7.64 | 4.13 | 105
NK-92 (IL-2 2.5 ng/mL) [26] | 3.42 | 2.68 | 6.81 | 39.8 | 104
NK-YS (IL-2 2.5 ng/mL) [16] | -6.82 | -1.19 | -0.2 | 14.6 | 103
NKL (IL-2 2.5 ng/mL) [15] | -12.1 | -11.6 | -5.5 | 34.5 | 106
SNK-6 (IL-2 2.5 ng/mL) [24] | -13 | -20.2 | -15.9 | 2.62 | 99.5
YT (IL-2 2.5 ng/mL) [23] | -5.49 | -3.57 | 3.25 | 14.8 | 103
[1] | -1.69 | -1.95 | -1.57 | 28.3 | 100
[17] | -5.89 | 6.82 | 13.3 | 76.1 | 99.2
[19] | -7.41 | -1.65 | 8.39 | 58.4 | 96.8
[20] | -4.75 | 1.46 | 0.7 | 34.3 | 99.2
[21] | 2.65 | 15.7 | 18.4 | 74.2 | 97

Settings | drug sensitivity score
DERL-7 (IL-2 2.5 ng/mL) [5] | 10.9
IMC-1 (IL-2 20 ng/mL) [14] | 4.78
KAI3 (IL-2 2.5 ng/mL) [9] | 11.2
KHYG-1 (IL-2 2.5 ng/mL) [12] | 6.47
NK-92 (IL-2 2.5 ng/mL) [13] | 10.8
NK-YS (IL-2 2.5 ng/mL) [3] | 8.03
NKL (IL-2 2.5 ng/mL) [2] | 10.3
SNK-6 (IL-2 2.5 ng/mL) [11] | 5.87
YT (IL-2 2.5 ng/mL) [10] | 8.07
[4] | 15.9
[6] | 12.6
[7] | 10.3
[8] | 16.2
[28] | 9.72
